In patent US20230278972A1, “SUBSTITUTED HALOALKYL SULFONANILIDE HERBICIDES” (FMC Corporation, priority 2020, published 2023):

Legend:
Type in all cases: in vivo
[1] = tested on: Ryegrass, Italian (Italian ryegrass, Lolium multiflorum); test: Test A postemergence, Ryegrass, Italian; details: Postemergence, 0 to 100 scale (0 no effect, 100 complete control); for Plant response rating, Ryegrass, Italian: 125 g ai/ha; for Ryegrass, Italian plant response rating: 500 g ai/ha, visual injury vs untreated controls after approx. 10 days
In short: (§1)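 Whole-plant herbicidal screen in pots of loam blended with sand. Sprays used a surfactant-containing, non-phytotoxic solvent vehicle. Timing was preemergence soil-directed at planting or postemergence at the one- to two-leaf stage (2–10 cm).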

[2] = tested on: barnyardgrass (Echinochloa crus-galli); test: Test A preemergence, barnyardgrass; details: Preemergence; for Barnyardgrass plant response rating: 125 g ai/ha, visual injury on 0 to 100 scale (0 no effect, 100 complete control), approximately 10 days; for Plant response rating, Barnyardgrass: 500 g ai/ha, 0 to 100 scale (0 no effect, 100 complete control)
In short: as §1

[3] = tested on: Foxtail, Giant (giant foxtail, Setaria faberi); test: Test A preemergence, Foxtail, Giant; details: Preemergence; for Foxtail, Giant plant response rating: 125 g ai/ha, visual injury on 0 to 100 scale (0 no effect, 100 complete control), approximately 10 days; for Plant response rating, Foxtail, Giant: 500 g ai/ha, 0 to 100 scale (0 no effect, 100 complete control)
In short: as §1

[4] = tested on: ragweed (common ragweed, Ambrosia artemisiifolia); test: Test A postemergence, ragweed; details: Postemergence, 0 to 100 scale (0 no effect, 100 complete control); for Plant response rating, Ragweed: 125 g ai/ha; for Ragweed plant response rating: 500 g ai/ha, visual injury vs untreated controls after approx. 10 days
In short: as §1

[5] = tested on: pigweed (Amaranthus retroflexus); test: Test A postemergence, pigweed; details: Postemergence, 0 to 100 scale (0 no effect, 100 complete control); for Plant response rating, Pigweed: 125 g ai/ha; for Pigweed plant response rating: 500 g ai/ha, visual injury vs untreated controls after approx. 10 days
In short: as §1

[6] = tested on: galium (catchweed bedstraw, Galium aparine); test: Test A postemergence, galium; details: Postemergence, 0 to 100 scale (0 no effect, 100 complete control); for Plant response rating, Galium: 125 g ai/ha; for Galium plant response rating: 500 g ai/ha, visual injury vs untreated controls after approx. 10 days
In short: (§2)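 Preemergence: pigweed seeds in loam soil–sand blend received a directed soil spray of test chemicals in a non-phytotoxic solvent with surfactant. Postemergence: barnyardgrass, wheat and galium in pots of the same soil, 2 to 10 cm tall at one- to two-leaf stage, sprayed with the same formulation.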

[7] = tested on: Ryegrass, Italian (Italian ryegrass, Lolium multiflorum); test: Test A preemergence, Ryegrass, Italian; details: Preemergence; for Ryegrass, Italian plant response rating: 125 g ai/ha, visual injury on 0 to 100 scale (0 no effect, 100 complete control), approximately 10 days; for Plant response rating, Ryegrass, Italian: 500 g ai/ha, 0 to 100 scale (0 no effect, 100 complete control)
In short: as §1

[8] = tested on: kochia (Bassia scoparia); test: Test A preemergence, kochia; details: Preemergence; for Kochia plant response rating: 125 g ai/ha, visual injury on 0 to 100 scale (0 no effect, 100 complete control), approximately 10 days; for Plant response rating, Kochia: 500 g ai/ha, 0 to 100 scale (0 no effect, 100 complete control)
In short: as §1

[9] = tested on: ragweed (common ragweed, Ambrosia artemisiifolia); test: Test A preemergence, ragweed; details: Preemergence; for Ragweed plant response rating: 125 g ai/ha, visual injury on 0 to 100 scale (0 no effect, 100 complete control), approximately 10 days; for Plant response rating, Ragweed: 500 g ai/ha, 0 to 100 scale (0 no effect, 100 complete control)
In short: as §1

[10] = tested on: wheat (Triticum aestivum); test: Test A postemergence, wheat; details: Postemergence, 0 to 100 scale (0 no effect, 100 complete control); for Plant response rating, Wheat: 125 g ai/ha; for Wheat plant response rating: 500 g ai/ha, visual injury vs untreated controls after approx. 10 days
In short: as §2

[11] = tested on: kochia (Bassia scoparia); test: Test A postemergence, kochia; details: Postemergence, 0 to 100 scale (0 no effect, 100 complete control); for Plant response rating, Kochia: 125 g ai/ha; for Kochia plant response rating: 500 g ai/ha, visual injury vs untreated controls after approx. 10 days
In short: as §1

[12] = tested on: blackgrass (Alopecurus myosuroides); test: Test A postemergence, blackgrass; details: Postemergence, 0 to 100 scale (0 no effect, 100 complete control); for Plant response rating, Blackgrass: 125 g ai/ha; for Blackgrass plant response rating: 500 g ai/ha, visual injury vs untreated controls after approx. 10 days
In short: as §1

[13] = tested on: barnyardgrass (Echinochloa crus-galli); test: Test A postemergence, barnyardgrass; details: Postemergence, 0 to 100 scale (0 no effect, 100 complete control); for Plant response rating, Barnyardgrass: 125 g ai/ha; for Barnyardgrass plant response rating: 500 g ai/ha, visual injury vs untreated controls after approx. 10 days
In short: as §2

[14] = tested on: corn (Zea mays); test: Test A postemergence, corn; details: Postemergence, 0 to 100 scale (0 no effect, 100 complete control); for Plant response rating, Corn: 125 g ai/ha; for Corn plant response rating: 500 g ai/ha, visual injury vs untreated controls after approx. 10 days
In short: as §1

[15] = tested on: Foxtail, Giant (giant foxtail, Setaria faberi); test: Test A postemergence, Foxtail, Giant; details: Postemergence, 0 to 100 scale (0 no effect, 100 complete control); for Plant response rating, Foxtail, Giant: 125 g ai/ha; for Foxtail, Giant plant response rating: 500 g ai/ha, visual injury vs untreated controls after approx. 10 days
In short: as §1

Structure (SMILES) | Plant response rating, Ryegrass, Italian [1] | Ryegrass, Italian plant response rating [1] | Barnyardgrass plant response rating [2] | Plant response rating, Barnyardgrass [2] | Foxtail, Giant plant response rating [3] | Plant response rating, Foxtail, Giant [3] | Plant response rating, Ragweed [4] | Ragweed plant response rating [4] | Plant response rating, Pigweed [5] | Pigweed plant response rating [5] | Plant response rating, Galium [6] | Galium plant response rating [6] | Ryegrass, Italian plant response rating [7] | Plant response rating, Ryegrass, Italian [7] | Kochia plant response rating [8] | Plant response rating, Kochia [8] | Ragweed plant response rating [9] | Plant response rating, Ragweed [9] | Plant response rating, Wheat [10] | Wheat plant response rating [10] | also measured
Cc1cc(C)c(C2=NOC3(CCSCC3)C2)cc1NS(=O)(=O)C(F)(F)F [Compound 176] | 60 | 80 | 70 | 90 | 100 | 100 | 60 | 90 | 60 | 90 | 90 | 90 | 90 | 100 | 70 | 90 | 40 | 90 | 60 | 60 | Plant response rating, Kochia [11]: 40; Kochia plant response rating [11]: 50; Plant response rating, Blackgrass [12]: 40; Blackgrass plant response rating [12]: 70; Plant response rating, Barnyardgrass [13]: 80; Barnyardgrass plant response rating [13]: 90; Plant response rating, Corn [14]: 70; Corn plant response rating [14]: 80; Plant response rating, Foxtail, Giant [15]: 90; Foxtail, Giant plant response rating [15]: 90
C#CCN(C)C(=O)c1cc(NS(=O)(=O)C(F)(F)F)c(C)c(F)c1C [Compound 179] | 40 | 80 | 90 | 90 | 80 | 100 | 90 | 90 | 80 | 90 | 90 | 90 | 100 | 100 | 90 | 90 | 90 | 90 | 0 | 60 | Plant response rating, Kochia [11]: 60; Kochia plant response rating [11]: 70; Plant response rating, Blackgrass [12]: 20; Blackgrass plant response rating [12]: 40; Plant response rating, Barnyardgrass [13]: 90; Barnyardgrass plant response rating [13]: 90; Plant response rating, Corn [14]: 20; Corn plant response rating [14]: 80; Plant response rating, Foxtail, Giant [15]: 70; Foxtail, Giant plant response rating [15]: 90
